# Test results reported in US20080108562A1, “Treatment Of Bone Metastases By Means Of Pth Receptor Agonists” (Ferring B.V., priority 2004, published 2008).
# “Also recorded” adds a separate entry of the source.
# Assays:
# rats = conditions: rat, in vivo; cited from earlier work
# [1] = test system: adult C3H mice with murine CCL-11 (NCTC clone 2472) osteolytic sarcoma cells injected into the distal femur; experiment: Flinching and guarding behavior in animal model for metastatic bone disease; format: in vivo; conditions: metastatic bone tumor animals, day 14
# Protocol: (§1) An animal model for metastatic bone disease was established in adult C3H mice with murine sarcoma cells as described in Honore, et al., Neuroscience. (2000) 98(3):585-98 (see also Clohisy, et al. J Orthop Res. (1996) 14(3):396-402). In brief, murine CCL-11 (NCTC clone 2472) osteolytic sarcoma cells were injected into the distal femur. The injection site was closed with dental grade amalgam. Wounds were closed with wound clips. Wound clips were removed at day 6 to prevent interference with behavioral testing. Sham-injected and sarcoma-injected mice received daily subcutaneous injections of either 10 μl/kg vehicle or 10 μl/kg vehicle containing PTH (1-34) at 80 μg/ml concentration beginning after testing and radiographs were taken 6 d after injection of sarcoma cells. Treatment with PTH (1-34) or vehicle ended 14 d after injection, when final behavioral testing was done and the animals sacrificed.
# To assess flinching and guarding behavior, animals were placed in raised plexiglass chambers with a wire grid floor for observation of flinching and guarding of the right hindlimb. The mice were allowed to acclimate to the chamber for 20 minutes. Guarding and flinching behaviors of each mouse were measured for 2 minutes. The number of flinches were counted, and the time spent guarding the foot (the foot is lifted off of the floor) was measured.
# [2] = test system: adult C3H mice with murine CCL-11 (NCTC clone 2472) osteolytic sarcoma cells injected into the distal femur; experiment: Spontaneous limb use in animal model for metastatic bone disease; format: in vivo; conditions: metastatic bone tumor animals, day 14
# Protocol: as §1
# Spontaneous limb use was assessed as described by Luger et al (2001). The mouse was placed in an empty mouse pan and observed while walking across the pan in a continuous motion. Limping and/or guarding behavior of the right (sarcoma treated) hindlimb was rated on the following scale: 0=complete lack of use, 1=partial non-use, 2=limping and guarding, 3=limping, 4=normal walking.
# [3] = test system: adult C3H mice with murine CCL-11 (NCTC clone 2472) osteolytic sarcoma cells injected into the distal femur; experiment: Tactile allodynia (von Frey paw withdrawal threshold) in animal model for metastatic bone disease; format: in vivo; conditions: metastatic bone tumor animals, day 14
# Protocol: as §1, with “Treatment with PTH (1-34) or vehicle ended 14 d after injection, when final behavioral testing was done and the animals sacrificed.” left out
# Tactile allodynia was determined in the manner described by Chaplan et al. J Neurosci Methods (1994) 53(1):55-63. Paw withdrawal threshold was determined in response to probing with calibrated von Frey filaments. […] The 50% paw withdrawal threshold was determined by the non-parametric method of Dixon (Dixon, Annu Rev Pharmacol Toxicol 20:441-462, 1980). […] The 50% paw withdrawal threshold was determined as (10^[Xf+kδ])/10,000, where Xf=the value of the last von Frey filament employed, k=Dixon value for the positive/negative pattern, and δ=the mean (log) difference between stimuli. […]
# [4] = test system: adult C3H mice with murine CCL-11 (NCTC clone 2472) osteolytic sarcoma cells injected into the distal femur; experiment: Radiological analysis of bone density in animal model for metastatic bone disease; format: in vivo
# Protocol: as §1
# […] Mice were lightly anesthetized to prevent movement during the x-ray. The radiographs of the mouse femurs were scanned at maximal resolution (2400 dpi) and saved in digital grayscale format (TIFF). The grayscale levels were standardized for all radiographs by setting the amalgam region to white (grayscale value of 255) and the lower limit of the grayscale was set to the darkest pixels of the scanned image. The grayscale values correspond to the luminosity of the scanned images.
# The images were analyzed with Metamorph (Universal Imaging Corp, West Chester, Pa.). The bones were divided into 3 equal regions. Data were taken from the lower region at the site were sarcoma cells were injected. Thresholding was standardized to include all pixels with grayscale values between 2 to 76. Since grayscale values are related to luminosity, an increase in the threshold area represents an increase in darker, or lower density, bone area. The integrated intensity values for the regions were determined with Metamorph. Significant decreases in the intensity of a region indicates a significant reduction in bone density. […]
# PTH receptor = molecular target: T1, PTH receptor (Homo sapiens, UniProt Q03431); conditions: bone-related activities; relative to native 84 amino-acid hormone; cited from earlier work
# T1 sequence (Q03431 27-593): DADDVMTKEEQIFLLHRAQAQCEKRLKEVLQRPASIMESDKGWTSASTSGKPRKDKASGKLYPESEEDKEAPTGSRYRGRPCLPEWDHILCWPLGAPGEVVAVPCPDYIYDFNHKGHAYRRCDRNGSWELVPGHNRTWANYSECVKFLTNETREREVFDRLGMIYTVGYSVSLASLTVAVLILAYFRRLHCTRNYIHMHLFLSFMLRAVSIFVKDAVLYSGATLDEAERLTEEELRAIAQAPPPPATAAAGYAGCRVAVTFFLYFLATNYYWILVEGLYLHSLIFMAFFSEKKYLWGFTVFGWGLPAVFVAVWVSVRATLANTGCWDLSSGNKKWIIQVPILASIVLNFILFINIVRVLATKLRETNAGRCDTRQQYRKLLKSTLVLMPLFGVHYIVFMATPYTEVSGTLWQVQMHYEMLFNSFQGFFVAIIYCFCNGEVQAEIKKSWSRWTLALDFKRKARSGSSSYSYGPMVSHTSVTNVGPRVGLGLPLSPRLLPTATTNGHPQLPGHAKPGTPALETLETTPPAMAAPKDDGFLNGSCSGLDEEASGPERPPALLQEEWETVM
substance,measurement,setting,value
teriparatide acetate,risk of osteosarcoma (a malignant bone tumor),rats,increased risk of osteosarcoma
"PTH(1-34): truncated form of parathyroid hormone, residues 1-34; PTH receptor agonist tested in the mouse model (SVSEIQLMHNLGKHLNSMERVEWLRKKLQDVHNF; listed as Homo sapiens)",limb guarding,[1],ameloriated pain; also recorded: significantly reduced
same,spontaneous pain (spontaneous flinching),[1],ameloriated pain
same,limb use,[2],ameloriated pain
same,limb use,[2]; listed as PTH (1-34),returned to near normal levels
same,tactile hypersensitivity (evoked pain),[3],not effected
same,tactile hypersensitivity (evoked pain),[3]; listed as PTH (1-34),did not effect
same,bone density (optical density of x-ray radiographs),"[4]; normal (sham-injected) animals, daily s.c. PTH(1-34), day 14",some bone density increase
same,bone density (optical density of x-ray radiographs),"[4]; sarcoma bearing animals, daily s.c. from day 6, day 14",near normal bone density
same,bone density (optical density of x-ray radiographs),"[4]; sarcoma bearing animals, day 17, versus normal untreated animals",increase in density over that of normal untreated animals
"PTH(1-25): carboxyl-terminal truncation of PTH(1-34) (SVSEIQLMHNLGKHLNSMERVEWLR; UniProt P01270 32-56, looked up, fragment)",agonist activity of PTH fragment,PTH receptor,essentially inactive
